Measured values as given in US8093028B2, “Engineered glycosyltransferases with expanded substrate specificity” (Wisconsin Alumni Research Foundation, priority 2007, dated 2012).

Experiments:
Type in all cases: biochemical
OleD P67T/S132F/A242V [1] = target: T1, OleD P67T/S132F/A242V (Streptomyces antibioticus, UniProt Q53685, A242V/P67T/S132F); experiment: Rate of glucoside formation with acceptors (RP-HPLC); settings: for Rate of glucoside formation, P67T/S132F/A242V: 200 μM acceptor, 1 mM UDPG; for Fold-improvement compared to WT OleD: rate of P67T/S132F/A242V versus WT
T1 construct: made in house; host or cells: E. coli (site-directed mutant of pET28/OleD)
Protocol: Enzyme assays for the determination of glycosyl transfer rate to FIG. 1: 4, Table 1: 27-32 were carried out in a total volume of 500 μl 50 mM Tris-HCl (pH8.0) containing 5 mM MgCl2, 200 μM acceptor, 1 mM UDPG, and 50 μg pure enzyme. Aliquots (100 μl) were removed between 0 and 30 min, at which time product formation was still linear with respect to time, and quenched with 90 μl of an 8:1 mixture of ice-cold MeOH/HCl, and centrifuged at 14,000 rpm for 10 min. Supernatants were analyzed by analytical reverse-phase HPLC with a 250 mm×4.6 mm Gemini […] C18 column (Phenomenex, Torrance, Calif.) using a gradient of 10-90% CH3CN in 0.1% trifluoroacetic acid (TFA)/H2O in 20 min at 1 ml/min, with detection at 254 nm. HPLC peak areas were integrated, and the product concentration calculated as a percent of the total peak area. Product identity was confirmed by co-elution with a commercial standard when available and, in all cases, by LC-MS (FIG. 8). […]
(§1) Enzyme reactions were carried out in a total volume of 500 μl 50 mM Tris-HCl (pH8.0) containing 5 mM MgCl2, 200 μM acceptor, 1 mM UDPG, and 50 μg pure enzyme. Aliquots (100 μl) were removed between 0 and 30 min, and quenched with 90 μl of an 8:1 mixture of ice-cold MeOH/HCl for activity towards FIG. 1: 4, Table 1: 27-32, or with 90 μl of ice-cold MeOH for activity towards FIG. 1: 1, and the samples centrifuged at 14,000 rpm for 10 min.
(§2) For determination of activity to FIG. 1: 4, Table 1: 27-32, supernatants were analyzed by analytical reverse-phase HPLC with a Gemini 5μ C18 column (Phenomenex) using a gradient of 10-90% CH3CN in 0.1% trifluoroacetic acid (TFA)/H2O in 20 min, with detection at 254 nm. HPLC peak areas were integrated, and the product concentration calculated as a percent of the total peak area. All products were characterized by LC-MS. Mass spectra were obtained using electrospray ionization on an Agilent 1100 HPLC-MSD SL quadrapole mass spectrometer connected to a UV/Vis diode array detector. For LC-MS analysis, quenched reaction mixtures (see below) were analyzed by analytical reverse-phase HPLC with a 250 mm×4.6 mm Gemini 5μ C18 column (Phenomenex, Torrance, Calif.) using a gradient of 10-90% CH3CN in 0.1% formic acid/H2O in 20 min at 1 ml/min, with detection at 254 nm.
(§3) For determination of activity toward FIG. 1: 1, centrifuged reaction mixtures were analyzed by analytical reverse-phase HPLC with a Gemini 5μ C18 column (Phenomenex) using a gradient of 0-90% CH3CN in 50 mM NH3COOH over 30 min at 1 ml/min. Compounds FIG. 1: 1 and 3 were detected by evaporative light scattering detection (ELSD) using a drift tube temperature of 105° C. and a nitrogen flow of 2.5 ml/min. All products were characterized by APCI LC-MS on an Agilent 1100 Series LC/MSD quadrapole mass spectrometer connected to a UV detector. Quenched reaction mixtures were analyzed by reverse-phase HPLC with a 10 mm×4.6 mm Zorbax Extend 5μ C18 Analytical Guard Column (Agilent Technologies) using an isocratic gradient of 80% MeOH in 2 min at 1 ml/min, with detection at 254 nm.

WT OleD = target: T2, WT OleD (Streptomyces antibioticus, UniProt Q53685, P55A/R82V/R83E/T84P); experiment: as above; settings: 200 μM acceptor, 1 mM UDPG
T2 construct: made in house; host or cells: E. coli BL21(DE3)pLysS, plasmid pET28/OleD
Protocol: (§4) Enzyme assays for the determination of glycosyl transfer rate to FIG. 1: 4, Table 1: 27-32 were carried out in a total volume of 500 μl 50 mM Tris-HCl (pH8.0) containing 5 mM MgCl2, 200 μM acceptor, 1 mM UDPG, and 50 μg pure enzyme. Aliquots (100 μl) were removed between 0 and 30 min, at which time product formation was still linear with respect to time, and quenched with 90 μl of an 8:1 mixture of ice-cold MeOH/HCl, and centrifuged at 14,000 rpm for 10 min. Supernatants were analyzed by analytical reverse-phase HPLC with a 250 mm×4.6 mm Gemini […] C18 column (Phenomenex, Torrance, Calif.) using a gradient of 10-90% CH3CN in 0.1% trifluoroacetic acid (TFA)/H2O in 20 min at 1 ml/min, with detection at 254 nm. HPLC peak areas were integrated, and the product concentration calculated as a percent of the total peak area. Product identity was confirmed by co-elution with a commercial standard when available and, in all cases, by LC-MS (FIG. 8).
(§5) Reaction conditions for assay of macrolide glycosylation were identical to that for FIG. 1: 1, except that typically, less enzyme was used (1-10 μg) and reactions were quenched with an equal volume of ice-cold MeOH. Centrifuged reaction mixtures were analyzed by analytical reverse-phase HPLC with a Gemini 5μ C18 column (Phenomenex) using a gradient of 0-90% CH3CN in 50 mM NH3COOH over 30 min at 1 ml/min. Products and acceptor macrolide were detected by evaporative light scattering detection (ELSD) using a drift tube temperature of 105° C. and a nitrogen flow of 2.5 ml/min. All products were characterized by APCI LC-MS on an Agilent 1100 Series LC/MSD quadrapole mass spectrometer connected to a UV detector. Quenched reaction mixtures were analyzed by reverse-phase HPLC with a 10 mm×4.6 mm Zorbax Extend 5μ C18 Analytical Guard Column (Agilent Technologies) using an isocratic gradient of 80% MeOH in 2 min at 1 ml/min, with detection at 254 nm.
as §1, §2, §3

OleD A242V [2] = target: T3, OleD A242V (Streptomyces antibioticus, UniProt Q53685, A242V/P55A/R82V/R83E/T84P); experiment: as above; settings: 200 μM acceptor, 1 mM UDPG
T3 construct: made in house; host or cells: E. coli BL21(DE3)pLysS (error-prone PCR clone in pET28a)
Protocol: as §4, §5, §1, §2, §3

OleD S132F [3] = target: T4, OleD S132F (Streptomyces antibioticus, UniProt Q53685, P55A/R82V/R83E/S132F/T84P); experiment: as above; settings: for Rate of glucoside formation, S132F: 200 μM acceptor, 1 mM UDPG
T4 construct: made in house; host or cells: E. coli (site-directed mutant of pET28/OleD)
Protocol: as §4, §5, §1, §2, §3

OleD P67T [4] = target: T5, OleD P67T (Streptomyces antibioticus, UniProt Q53685, P55A/P67T/R82V/R83E/T84P); experiment: as above; settings: 200 μM acceptor, 1 mM UDPG
T5 construct: made in house; host or cells: E. coli (site-directed mutant of pET28/OleD)
Protocol: as §4, §5, §1, §2, §3

OleD A242V [5] = target: T3, OleD A242V; settings: Table 3; 4-Me-umb (4) as acceptor, end point assay
Protocol: (§6) Reactions were carried out as described above with the following exceptions. The total volume was 50 μl and the acceptor FIG. 1: 4 was at 50 μM and the NDP-sugar at ˜500 μM. The NDP-sugars were used directly from RmlA-catalyzed reactions. […] Reactions were incubated at 25° C. for 3 h.
(§7) The total volume was 50 μl and the acceptor FIG. 1: 4 or FIG. 1: 1 was at 50 μM and the NDP-sugar at ˜500 μM. The NDP-sugars were used directly from RmlA-catalyzed reactions. […] Reactions were incubated at 25° C. for 3 h.
(§8) For activity toward FIG. 1: 4, aliquots (25 μl) were quenched with 25 μl of an 8:1 mixture of ice-cold MeOH/HCl, and centrifuged at 14,000 rpm for 10 min. […] HPLC peak areas were integrated, and the product concentration calculated as a percent of the total peak area. All products were characterized by LC-MS. Mass spectra were obtained using electrospray ionization on an Agilent 1100 HPLC-MSD SL quadrapole mass spectrometer connected to a UV/Vis diode array detector.

OleD S132F [6] = target: T4, OleD S132F; settings: Table 3; 4-Me-umb (4) as acceptor, end point assay
Protocol: as §6, §7, §8

OleD P67T/S132F/A242V [7] = target: T1, OleD P67T/S132F/A242V; settings: for Conversion rates (%), P67T/S132F/A242V: Table 3, 4-Me-umb (4) as acceptor, end point assay
Protocol: as §6, §7, §8

OleD P67T [8] = target: T5, OleD P67T; settings: Table 3; 4-Me-umb (4) as acceptor, end point assay
Protocol: as §6, §7, §8

| Compound | Rate of glucoside formation, P67T/S132F/A242V (OleD P67T/S132F/A242V [1]) | Fold-improvement compared to WT OleD (OleD P67T/S132F/A242V [1]; UDPG donor) [fold] | Rate of glucoside formation, WT (WT OleD) | Rate of glucoside formation, WT (WT OleD; listed as Table 1: 28) | Rate of glucoside formation, A242V (OleD A242V [2]) | Rate of glucoside formation, S132F (OleD S132F [3]) | Rate of glucoside formation, P67T (OleD P67T [4]) | Fold-improvement compared to WT OleD (OleD P67T/S132F/A242V [1]; UDPG donor, listed as Table 1: 27) [fold] | Conversion rates (%), A242V (OleD A242V [5]) [%] | Conversion rates (%), S132F (OleD S132F [6]) [%] | Conversion Rate (%), P67T/S132F/A242V (OleD P67T/S132F/A242V [7]; Table 2, acceptor 4 at 50 μM, NDP-sugar ~500 μM, 25° C., 3 h) [%] | Conversion rates (%), P67T/S132F/A242V (OleD P67T/S132F/A242V [7]) [%] | Conversion rates (%), P67T (OleD P67T [8]) [%] | glucosylation rate, fold less than the WT enzyme (OleD P67T/S132F/A242V [1]; UDPG donor) [fold] | activity, fold more than WT OleD (OleD S132F [3]; UDPG donor) [fold] |
| --- | --- | --- | --- | --- | --- | --- | --- | --- | --- | --- | --- | --- | --- | --- | --- |
| O=C(O)c1cc2ccc(O)cc2oc1=O [7-hydroxycoumarin-3-carboxylic acid (28), 7-hydroxycoumarin-3-carboxylic acid] | 0.62 mmols/product formed/min/μg enzyme × 10^3 | 62 | 0.01 mmols/product formed/min/μg enzyme × 10^3 | essentially non-detectable substrates | 0.01 mmols/product formed/min/μg enzyme × 10^3 | 0.022 mmols/product formed/min/μg enzyme × 10^3 | 0.022 mmols/product formed/min/μg enzyme × 10^3 |  |  |  |  |  |  |  |  |
| O=C(O)Cc1cc(=O)oc2cc(O)ccc12 [7-hydroxycoumarin-4-acetic acid (27), 7-hydroxycoumarin-4-acetic acid] | 3.6 mmols/product formed/min/μg enzyme × 10^3 | >180 | essentially non-detectable substrates |  | 0.16 mmols/product formed/min/μg enzyme × 10^3 | 0.08 mmols/product formed/min/μg enzyme × 10^3 | 0.22 mmols/product formed/min/μg enzyme × 10^3 | > 180 |  |  |  |  |  |  |  |
| O=c1ccn([C@@H]2O[C@H](COP(=O)(O)OP(=O)(O)O[C@H]3OC[C@@H](O)[C@H](O)[C@H]3O)[C@@H](O)[C@H]2O)c(=O)[nH]1 [UDP-xylose (7), UDP-xylose] |  |  |  |  |  |  |  |  | 2 | 1.5 | 31 | 31 | 2 |  |  |
| O=c1c(-c2ccc(O)cc2)coc2cc(O)ccc12 [daidzein (31), daidzein] | 24 mmols/product formed/min/μg enzyme × 10^3 | 5.7 | 4.2 mmols/product formed/min/μg enzyme × 10^3 |  | 8.5 mmols/product formed/min/μg enzyme × 10^3 | 5.5 mmols/product formed/min/μg enzyme × 10^3 | 16.0 mmols/product formed/min/μg enzyme × 10^3 |  |  |  |  |  |  |  |  |
| O=c1c(-c2ccc(O)cc2)coc2cc(O)cc(O)c12 [genistein (32), genistein] | 26 mmols/product formed/min/μg enzyme × 10^3 | 7.7 | 3.4 mmols/product formed/min/μg enzyme × 10^3 |  | 14.1 mmols/product formed/min/μg enzyme × 10^3 | 8.8 mmols/product formed/min/μg enzyme × 10^3 | 28.8 mmols/product formed/min/μg enzyme × 10^3 |  |  |  |  |  |  |  |  |
| O=c1c(O)c(-c2ccc(O)cc2)oc2cc(O)cc(O)c12 [kaempferol (30), kaempferol] | 28 mmols/product formed/min/μg enzyme × 10^3 | 2.1 | 13.2 mmols/product formed/min/μg enzyme × 10^3 |  | 15.3 mmols/product formed/min/μg enzyme × 10^3 | 23 mmols/product formed/min/μg enzyme × 10^3 | 99.9 mmols/product formed/min/μg enzyme × 10^3 |  |  |  |  |  |  |  |  |
| CO[C@H]1C[C@H](O[C@H]2[C@H](C)[C@@H](O[C@@H]3O[C@H](C)C[C@H](N(C)C)[C@H]3O)[C@@H](C)C[C@@]3(CO3)C(=O)[C@H](C)[C@@H](O)[C@@H](C)[C@@H](C)OC(=O)[C@@H]2C)O[C@@H](C)[C@@H]1O [oleandomycin (1), oleandomycin] | 13 mmols/product formed/min/μg enzyme × 10^3 | 0.02 | 700 mmols/product formed/min/μg enzyme × 10^3 |  | 70 mmols/product formed/min/μg enzyme × 10^3 | 1487 mmols/product formed/min/μg enzyme × 10^3 | 20 mmols/product formed/min/μg enzyme × 10^3 |  |  |  |  |  |  | ~54 | ~2 |
| UDP-2-amino-glc [UDP-2-amino-glc (19)] |  |  |  |  |  |  |  |  |  |  |  | 24 |  |  |  |
